Reference: patent US9149038B2, “4-amino-6-(heterocyclic)picolinates and 6-amino-2-(heterocyclic)pyrimidine-4-carboxylates and their use as herbicides” (Dow AgroSciences LLC, priority 2013, dated 2015)
Read-outs that look alike come from different tables or passages of the source.

What was measured:
[1] = test system: Key Broadleaf Weed and Crop Species; test: Post-Emergent Test II: postemergent herbicidal activity, visual rating after 14 d (Table 7); format: in vivo; settings: post-emergence, 336 h; for pest or weed control at 35 g/ha: 35 g ai/ha; for pest or weed control at 70 g/ha: 70 g ai/ha; for pest or weed control at 140 g/ha: 140 g ai/ha
How it was run: (§1)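 Greenhouse plants at first or second true leaf stage sprayed with compound in acetone/DMSO-based spray solution with crop oil concentrate and Triton X-155 at 187 L/ha, tested at highest rate and ½× to 1/16× dilutions; solvent blank controls. Injury rated visually 0–100% versus untreated plants after 14 d.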

[2] = test system: Key Grass and Sedge Weeds as well as Grass Crops; test: Post-Emergent Test II: postemergent herbicidal activity, visual rating after 14 d (Table 8); format: in vivo; settings: post-emergence, 336 h; for pest or weed control at 35 g/ha: 35 g ai/ha; for pest or weed control at 70 g/ha: 70 g ai/ha; for pest or weed control at 140 g/ha: 140 g ai/ha
How it was run: as §1

[3] = lambsquarters (Chenopodium album), read-out: Visual Growth Reduction (%) 14 Days After Application CHEAL
[4] = oilseed rape, canola (Brassica napus), read-out: Visual Growth Reduction (%) 14 Days After Application BRSNN
[5] = redroot pigweed (Amaranthus retroflexus), read-out: Visual Growth Reduction (%) 14 Days After Application AMARE
[6] = sunflower (Helianthus annuus), read-out: Visual Growth Reduction (%) 14 Days After Application HELAN
[7] = velvetleaf (Abutilon theophrasti), read-out: Visual Growth Reduction (%) 14 Days After Application ABUTH
[8] = wild poinsettia (Euphorbia heterophylla), read-out: Visual Growth Reduction (%) 14 Days After Application EPHHL
[9] = barnyardgrass (Echinochloa crus-galli), read-out: Visual Growth Reduction (%) 14 Days After Application ECHCG
[10] = giant foxtail (Setaria faberi), read-out: Visual Growth Reduction (%) 14 Days After Application SETFA
[11] = maize, corn (Zea mays), read-out: Visual Growth Reduction (%) 14 Days After Application ZEAMX
[12] = rice (Oryza sativa), read-out: Visual Growth Reduction (%) 14 Days After Application ORYSA
[13] = wheat, spring (Triticum aestivum), read-out: Visual Growth Reduction (%) 14 Days After Application TRZAS
[14] = yellow nutsedge (Cyperus esculentus), read-out: Visual Growth Reduction (%) 14 Days After Application CYPES

C=Cc1c(C(=O)O)nc(-c2ccc3c(c2)OC(F)(F)O3)c(F)c1N [Compound 30]
0 to 29%: pest or weed control at 35 g/ha [1, 3] | pest or weed control at 70 g/ha [1, 3] | pest or weed control at 140 g/ha [1, 3] | pest or weed control at 35 g/ha [1, 5] | pest or weed control at 70 g/ha [1, 5] | pest or weed control at 140 g/ha [1, 5] | pest or weed control at 35 g/ha [1, 6] | pest or weed control at 70 g/ha [1, 6] | pest or weed control at 35 g/ha [2, 10] | pest or weed control at 70 g/ha [2, 10] | pest or weed control at 140 g/ha [2, 10] | pest or weed control at 35 g/ha [2, 12] | pest or weed control at 70 g/ha [2, 12] | pest or weed control at 140 g/ha [2, 12] | pest or weed control at 35 g/ha [2, 13] | pest or weed control at 70 g/ha [2, 13] | pest or weed control at 140 g/ha [2, 13] | pest or weed control at 35 g/ha [2, 14]
60 to 74%: pest or weed control at 70 g/ha [1, 4] | pest or weed control at 35 g/ha [1, 8] | pest or weed control at 70 g/ha [2, 11]
85 to 94%: pest or weed control at 140 g/ha [1, 6] | pest or weed control at 140 g/ha [1, 8]
95 to 100%: pest or weed control at 70 g/ha [2, 14] | pest or weed control at 140 g/ha [2, 14]
75 to 84%: pest or weed control at 140 g/ha [1, 4] | pest or weed control at 70 g/ha [1, 7] | pest or weed control at 140 g/ha [1, 7] | pest or weed control at 70 g/ha [1, 8] | pest or weed control at 35 g/ha [2, 9] | pest or weed control at 70 g/ha [2, 9] | pest or weed control at 140 g/ha [2, 9] | pest or weed control at 140 g/ha [2, 11]
45 to 59%: pest or weed control at 35 g/ha [1, 4] | pest or weed control at 35 g/ha [1, 7] | pest or weed control at 35 g/ha [2, 11]

COC(=O)c1nc(-c2ccc3c(c2)OC(F)(F)O3)c(Cl)c(N)c1Cl [Compound 1]
85 to 94%: pest or weed control at 35 g/ha [1, 6] | pest or weed control at 70 g/ha [1, 6] | pest or weed control at 140 g/ha [1, 6]
45 to 59%: pest or weed control at 35 g/ha [2, 9] | pest or weed control at 70 g/ha [2, 10] | pest or weed control at 140 g/ha [2, 10]
0 to 29%: pest or weed control at 35 g/ha [1, 3] | pest or weed control at 70 g/ha [1, 3] | pest or weed control at 140 g/ha [1, 3] | pest or weed control at 35 g/ha [1, 4] | pest or weed control at 70 g/ha [1, 4] | pest or weed control at 140 g/ha [1, 4] | pest or weed control at 35 g/ha [1, 5] | pest or weed control at 70 g/ha [1, 5] | pest or weed control at 140 g/ha [1, 5] | pest or weed control at 35 g/ha [1, 7] | pest or weed control at 70 g/ha [1, 7] | pest or weed control at 140 g/ha [1, 7] | pest or weed control at 35 g/ha [1, 8] | pest or weed control at 70 g/ha [1, 8] | pest or weed control at 140 g/ha [1, 8] | pest or weed control at 35 g/ha [2, 10] | pest or weed control at 35 g/ha [2, 12] | pest or weed control at 70 g/ha [2, 12] | pest or weed control at 140 g/ha [2, 12] | pest or weed control at 35 g/ha [2, 13] | pest or weed control at 70 g/ha [2, 13] | pest or weed control at 140 g/ha [2, 13] | pest or weed control at 35 g/ha [2, 14] | pest or weed control at 70 g/ha [2, 14] | pest or weed control at 140 g/ha [2, 14]
60 to 74%: pest or weed control at 70 g/ha [2, 9] | pest or weed control at 140 g/ha [2, 9] | pest or weed control at 35 g/ha [2, 11] | pest or weed control at 70 g/ha [2, 11] | pest or weed control at 140 g/ha [2, 11]
